Assay results from the supplement of paper PMC6045584.
± gives the standard deviation of the averaged measurements.

How the values were obtained:
PACLITAXEL = compound: CC(=O)O[C@H]1C(=O)[C@@]2(C)[C@H]([C@H](OC(=O)c3ccccc3)[C@]3(O)C[C@H](OC(=O)[C@H](O)[C@@H](NC(=O)c4ccccc4)c4ccccc4)C(C)=C1C3(C)C)[C@]1(OC(C)=O)CO[C@@H]1C[C@@H]2O [PACLITAXEL]; assay: surviving fraction relative to DMSO-only wells; higher = less growth inhibition; details: exposure time: 5 days
How it was run: (§1)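 Log-phase tumour cells were seeded at 250–500 per well in 384-well plates and, from 24 hours after seeding, exposed continuously for five days to inhibitors at 0.5, 1, 5, 10, 50, 100, 500 and 1000 nM. Surviving fraction is CellTiter-Glo luminescence normalised to the median of DMSO-only wells. Luminescence was measured after 10 minutes at room temperature, and only lines screened three times with replicate Pearson r >0.7 and median Z' >0.3 were kept.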

CARBOPLATIN = compound: O=C(O)C1(C(=O)O)CCC1.[NH2-].[NH2-].[Pt+2] [CARBOPLATIN]; assay: as above; details: exposure time: 5 days
How it was run: as §1

Test System	surviving fraction (PACLITAXEL; 0.5 nM)	surviving fraction (PACLITAXEL; 1 nM)	surviving fraction (PACLITAXEL; 5 nM)	surviving fraction (PACLITAXEL; 10 nM)	surviving fraction (PACLITAXEL; 50 nM)	surviving fraction (PACLITAXEL; 100 nM)	surviving fraction (PACLITAXEL; 500 nM)	surviving fraction (PACLITAXEL; 1000 nM)	surviving fraction (CARBOPLATIN; 0.5 nM)	surviving fraction (CARBOPLATIN; 1 nM)	surviving fraction (CARBOPLATIN; 5 nM)	surviving fraction (CARBOPLATIN; 10 nM)	surviving fraction (CARBOPLATIN; 50 nM)	surviving fraction (CARBOPLATIN; 100 nM)	surviving fraction (CARBOPLATIN; 500 nM)	surviving fraction (CARBOPLATIN; 1000 nM)
22RV1 PROSTATE	1.02 ± 0.057	1.04 ± 0.066	0.121 ± 0.018	0.0847 ± 0.0021	0.0603 ± 0.0061	0.053 ± 0.0036	0.0467 ± 0.0057	0.0553 ± 0.0046	1.1 ± 0.072	0.999 ± 0.057	1.03 ± 0.051	1.02 ± 0.036	1.06 ± 0.093	1.04 ± 0.12	1.06 ± 0.068	1.13 ± 0.17
93VU HEADNECK	0.972 ± 0.067	0.752 ± 0.059	0.326 ± 0.015	0.266 ± 0.014	0.157 ± 0.011	0.134 ± 0.0064	0.135 ± 0.018	0.132 ± 0.0017	1.19 ± 0.012	1.13 ± 0.055	1.26 ± 0.097	1.24 ± 0.21	1.27 ± 0.091	1.28 ± 0.09	1.19 ± 0.027	1.21 ± 0.1
A549 LUNG	0.982 ± 0.013	1.04 ± 0.031	0.369 ± 0.011	0.234 ± 0.0055	0.182 ± 0.011	0.186 ± 0.01	0.172 ± 0.0087	0.179 ± 0.0038	1.07 ± 0.023	1.08 ± 0.013	1.08 ± 0.02	1.03 ± 0.019	1.1 ± 0.011	1.06 ± 0.019	1.07 ± 0.032	1.09 ± 0.012
ASKA SYNOVIAL	0.851 ± 0.028	0.629 ± 0.052	0.203 ± 0.011	0.194 ± 0.0031	0.262 ± 0.0055	0.23 ± 0.011	0.199 ± 0.016	0.229 ± 0.01	1.03 ± 0.06	1.05 ± 0.022	1.16 ± 0.088	1.17 ± 0.061	1.14 ± 0.073	1.27 ± 0.1	1.1 ± 0.097	1.09 ± 0.086
BT20 BREAST	0.956 ± 0.11	0.718 ± 0.026	0.0893 ± 0.0055	0.0667 ± 0.0057	0.0593 ± 0.0063	0.058 ± 0.01	0.0513 ± 0.0049	0.0587 ± 0.011	1.11 ± 0.04	1.19 ± 0.12	1.39 ± 0.49	1.24 ± 0.04	1.2 ± 0.088	1.29 ± 0.14	1.33 ± 0.16	1.11 ± 0.069
BT549 BREAST	0.963 ± 0.13	0.219 ± 0.04	0.0553 ± 0.0085	0.0387 ± 0.0025	0.049 ± 0.0079	0.041 ± 0.0027	0.038 ± 0.0053	0.0463 ± 0.014	1.08 ± 0.038	1.19 ± 0.04	1.06 ± 0.081	1.05 ± 0.03	1.05 ± 0.097	1.2 ± 0.072	0.967 ± 0.034	1.16 ± 0.032
C33A CERVIX	0.855 ± 0.042	0.842 ± 0.054	0.328 ± 0.015	0.179 ± 0.031	0.11 ± 0.0091	0.173 ± 0.047	0.089 ± 0.021	0.0977 ± 0.025	1.14 ± 0.063	1.14 ± 0.085	1.19 ± 0.082	1.43 ± 0.17	1.21 ± 0.066	1.43 ± 0.13	1.15 ± 0.051	1.31 ± 0.024
CADOES1 SOFT TISSUE	1 ± 0.062	0.994 ± 0.13	0.955 ± 0.039	0.846 ± 0.078	0.38 ± 0.11	0.188 ± 0.058	0.052 ± 0.0017	0.0457 ± 0.0015	0.992 ± 0.13	0.966 ± 0.11	0.934 ± 0.052	0.987 ± 0.15	0.96 ± 0.11	0.962 ± 0.078	1.1 ± 0.11	1.02 ± 0.11
CAL51 BREAST	0.824 ± 0.04	0.642 ± 0.076	0.0935 ± 0.013	0.0585 ± 0.0033	0.0427 ± 0.0018	0.0332 ± 0.0037	0.0295 ± 0.0005	0.0332 ± 0.0027	0.974 ± 0.023	0.924 ± 0.08	0.98 ± 0.018	0.996 ± 0.017	1.03 ± 0.077	1.02 ± 0.022	1.09 ± 0.022	0.977 ± 0.024
CAL72 BONE	0.876 ± 0.061	0.459 ± 0.078	0.386 ± 0.047	0.297 ± 0.032	0.191 ± 0.018	0.135 ± 0.031	0.112 ± 0.0096	0.123 ± 0.025	1.05 ± 0.081	1.03 ± 0.094	1.06 ± 0.035	1.06 ± 0.052	1.12 ± 0.084	1.03 ± 0.23	1.1 ± 0.11	1.01 ± 0.15
CAL120 BREAST	0.744 ± 0.044	0.602 ± 0.022	0.158 ± 0.014	0.0937 ± 0.005	0.105 ± 0.003	0.0962 ± 0.0023	0.0798 ± 0.0061	0.0923 ± 0.007	1.02 ± 0.044	0.927 ± 0.023	1.02 ± 0.04	0.977 ± 0.027	1.02 ± 0.044	0.993 ± 0.033	0.986 ± 0.04	0.976 ± 0.034
CASKI CERVIX	0.857 ± 0.054	0.619 ± 0.029	0.0537 ± 0.011	0.0343 ± 0.00058	0.037 ± 0.005	0.0387 ± 0.0067	0.0313 ± 0.005	0.0303 ± 0.0045	0.946 ± 0.064	0.877 ± 0.018	0.954 ± 0.043	0.93 ± 0.069	1.05 ± 0.025	1.04 ± 0.021	1.03 ± 0.077	1.03 ± 0.058
CCK81 LARGE INTESTINE									0.883 ± 0.042	0.866 ± 0.092	0.835 ± 0.083	0.831 ± 0.093	0.77 ± 0.038	0.782 ± 0.081	0.784 ± 0.082	0.725 ± 0.043
CHLA90 AUTONOMIC GANGLIA	0.957 ± 0.032	0.948 ± 0.056	0.507 ± 0.022	0.231 ± 0.026	0.0937 ± 0.01	0.076 ± 0.016	0.0513 ± 0.0046	0.0577 ± 0.009	0.925 ± 0.057	0.943 ± 0.072	0.923 ± 0.058	0.917 ± 0.045	1.14 ± 0.11	1.11 ± 0.098	1.09 ± 0.097	1.13 ± 0.14
CME SYNOVIAL	1.07 ± 0.11	0.933 ± 0.11	0.524 ± 0.12	0.279 ± 0.073	0.258 ± 0.02	0.219 ± 0.028	0.2 ± 0.041	0.262 ± 0.02	1.25 ± 0.15	1.36 ± 0.039	1.4 ± 0.047	1.48 ± 0.061	1.35 ± 0.16	1.42 ± 0.024	1.3 ± 0.14	1.39 ± 0.082
COLO320DM LARGE INTESTINE	1.12 ± 0.1	1.1 ± 0.091	1.1 ± 0.018	1.03 ± 0.18	0.525 ± 0.033	0.292 ± 0.014	0.161 ± 0.015	0.116 ± 0.0099	1.12 ± 0.013	1.14 ± 0.021	1.1 ± 0.045	1.06 ± 0.059	1.2 ± 0.057	1.2 ± 0.15	1.15 ± 0.094	1.14 ± 0.1
G292 BONE	0.727 ± 0.028	0.472 ± 0.021	0.196 ± 0.0038	0.161 ± 0.0064	0.148 ± 0.0067	0.147 ± 0.0013	0.1228 ± 0.00076	0.128 ± 0.0067	1.01 ± 0.039	1 ± 0.026	1.07 ± 0.044	1.05 ± 0.015	1.04 ± 0.064	1.04 ± 0.029	1.01 ± 0.021	1.03 ± 0.064
H23 LUNG	0.951 ± 0.03	0.866 ± 0.022	0.18 ± 0.0027	0.14 ± 0.0095	0.113 ± 0.0091	0.108 ± 0.0042	0.0867 ± 0.0067	0.089 ± 0.003	1.06 ± 0.038	1.08 ± 0.029	1.07 ± 0.013	1.01 ± 0.03	1.03 ± 0.037	1.15 ± 0.02	1.09 ± 0.046	1.11 ± 0.067
HCC38 BREAST	0.894 ± 0.17	0.492 ± 0.062	0.138 ± 0.03	0.11 ± 0.0059	0.112 ± 0.053	0.094 ± 0.026	0.108 ± 0.0074	0.0823 ± 0.0076	1.07 ± 0.18	0.841 ± 0.19	1.34 ± 0.44	1.15 ± 0.15	0.944 ± 0.04	0.919 ± 0.13	0.962 ± 0.086	1 ± 0.12
HCC70 BREAST	0.937 ± 0.071	0.81 ± 0.07	0.218 ± 0.029	0.102 ± 0.019	0.099 ± 0.032	0.0517 ± 0.014	0.0543 ± 0.015	0.0647 ± 0.031	1.04 ± 0.049	1.07 ± 0.078	1.13 ± 0.14	1.13 ± 0.05	1.19 ± 0.064	0.999 ± 0.049	1.06 ± 0.082	1.02 ± 0.054
HCC78 LUNG	0.846 ± 0.3	0.486 ± 0.046	0.16 ± 0.036	0.104 ± 0.021	0.0717 ± 0.019	0.077 ± 0.011	0.0673 ± 0.013	0.1 ± 0.018	1.04 ± 0.061	0.884 ± 0.23	1.2 ± 0.18	0.951 ± 0.25	1 ± 0.22	1.12 ± 0.2	0.973 ± 0.037	0.954 ± 0.18
